Where “and” joins values, the source holds several entries; their conditions need not be identical. Equal entries are not always repeated. Values belong to the molecule of their own block, whether it stands above or below them.
Experiments:
PNPLA3 mRNA [1] = assay: qRT-PCR of PNPLA3 mRNA in compound-treated primary human hepatocytes; details: for Relative PINPLA3 mRNA: hepatocytes; for Relative PNPLA3 mRNA levels: JAK inhibitors, 10 μM, human hepatocytes, mean of three replicates ± standard deviation; for Primary Hepatocytes 4178 PNPLA3 (fold change in mRNA expression): donor 4178, 3 μM; for Primary Hepatocytes 4178 PNPLA3 (fold change in mRNA expression) / Primary Hepatocytes 4282 PNPLA3 (fold change in mRNA expression): relative to GUSB; for Primary Hepatocytes 4282 PNPLA3 (fold change in mRNA expression): donor 4282, 3 μM; for PNPLA3 mRNA, TGFβ and BMP pathway inhibitors (in words) / Relative PNPLA3 mRNA expression: primary human hepatocytes; for Relative PNPLA3 mRNA expression: Table 35
COL1A1 mRNA = assay: qRT-PCR of COL1A1 mRNA in human primary hepatic stellate cells; format: cell-based; details: for Relative COL1A1 mRNA levels RQ: GSK3 inhibitors in hepatic stellate cells; for Primary Stellate cells COL1A1 (fold change in mRNA expression): 3 μM, relative to GAPDH
Experimental: Cells were plated at a density of 17000 cells/well in a 96-well plate and allowed to adhere overnight. The following day cell culture media was replenished with the indicated concentration(s) of compound for 18 hours. […] Medium was removed after 18 hours and cells were processed for further analysis, e.g. qRT-PCR.
Analysis of the fold changes in expression as measured by qRT-PCR were performed using the technique below. The control was DMSO, and the treatment was the selected compound (CPD). The internal control was GAPDH or B-Actin (or otherwise indicated), and the gene of interest is the target. First, the averages of the 4 conditions were calculated for normalization: DMSO:GAPDH, DMSO:Target, CPD: GAPDH, and CPD:Target. Next, the ΔCT of both control and treatment were calculated to normalize to internal control (GAPDH) using (DMSO:Target)−(DMSO:GAPDH)=ΔCT control and (CPD:Target)−(CPD: GAPDH)=ΔCT experimental. Then, the ΔΔCT was calculated by ΔCT experimental−ΔCT control.
Candidate compounds were tested in stellate cells for their ability to modulate PNPLA3 and COL1A1. Stellate cells were treated with serial dilutions of the compounds, ranging from 0.1 μM to 100 μM. Changes in PNPLA3 (or COL1A1) mRNA levels in stellate cells were analyzed with qRT-PCR.

PNPLA3 mRNA [2] = assay: qRT-PCR of PNPLA3 mRNA in human primary hepatic stellate cells; format: cell-based; details: for Relative PNPLA3 mRNA levels RQ: GSK3 inhibitors in hepatic stellate cells; for Primary Stellate cells PNPLA3 (fold change in mRNA expression): 3 μM, relative to GAPDH; for Relative PNPLA3 mRNA expression: stellate cells, Table 37
PCSK9 mRNA = assay: qRT-PCR of PCSK9 mRNA in primary hepatocytes; format: cell-based, human; details: donor 4178, 3 μM, relative to GUSB
[3] = hepatic stellate cells, serial dilutions, 18 hours

Molecule: CN1C/C=C/CCOc2cccc(c2)-c2ccnc(n2)Nc2cccc(c2)C1 [SB1317]
Relative PINPLA3 mRNA (PNPLA3 mRNA [1]; 1 uM): 0.400
Relative PINPLA3 mRNA (PNPLA3 mRNA [1]; 10 uM): 0.413

Molecule: O=C1Nc2cc(Br)ccc2/C1=C1/Nc2ccccc2/C1=N\O [BIO]
Relative COL1A1 mRNA levels RQ (COL1A1 mRNA; 1 μM): 0.74
Relative COL1A1 mRNA levels RQ (COL1A1 mRNA; 10 μM): 0.59
COL1A1 expression (in words) (COL1A1 mRNA; [3]): modestly decreased both PNPLA3 and COL1A1 in a dose dependent manner
Relative PNPLA3 mRNA levels RQ (PNPLA3 mRNA [2]; 1 μM): 1.09
Relative PNPLA3 mRNA levels RQ (PNPLA3 mRNA [2]; 10 μM): 0.54
PNPLA3 mRNA levels (in words) (PNPLA3 mRNA [2]; [3]): modestly decreased both PNPLA3 and COL1A1 in a dose dependent manner

Molecule: O=C(Nc1nc2cccc(-c3ccc(CN4CCS(=O)(=O)CC4)cc3)n2n1)C1CC1 [Filgotinib]
Relative PNPLA3 mRNA levels (PNPLA3 mRNA [1]; qRT-PCR): 1.07 ± 0.14
Relative PINPLA3 mRNA (PNPLA3 mRNA [1]; 1 uM): 0.781
Relative PINPLA3 mRNA (PNPLA3 mRNA [1]; 10 uM): 0.365

Primary Hepatocytes 4178 PCSK9 (fold change in mRNA expression) (PCSK9 mRNA): 1.05
Molecule: COc1ccc(COc2cc3oc(=O)c4cc(C(C)O)ccc4c3cc2OC)cc1 (stereo not drawn) [Palomid 529 (P529)]
Primary Stellate cells COL1A1 (fold change in mRNA expression) (COL1A1 mRNA): 1.10
Primary Stellate cells PNPLA3 (fold change in mRNA expression) (PNPLA3 mRNA [2]): 0.97

Molecule: Cc1cc(Nc2cc(CN3CCOCC3)c3nc(C)c(Cc4ccc(Cl)cc4F)n3n2)n[nH]1 [Gandotinib]
Relative PNPLA3 mRNA levels (PNPLA3 mRNA [1]; qRT-PCR): 0.76 ± 0.13

Primary Hepatocytes 4178 PCSK9 (fold change in mRNA expression) (PCSK9 mRNA): 0.95
Primary Hepatocytes 4178 PNPLA3 (fold change in mRNA expression) (PNPLA3 mRNA [1]): 1.16
Primary Hepatocytes 4282 PNPLA3 (fold change in mRNA expression) (PNPLA3 mRNA [1]): 0.93
Molecule: O=c1c(O)c(-c2ccc(O)c(O)c2)oc2cc(O)cc(O)c12 [Quercetin]
Primary Stellate cells COL1A1 (fold change in mRNA expression) (COL1A1 mRNA): 0.94
Primary Stellate cells PNPLA3 (fold change in mRNA expression) (PNPLA3 mRNA [2]): 1.11

Molecule: Cc1cc(Nc2nc(N[C@@H](C)c3ncc(F)cn3)ncc2Cl)[nH]n1 [AZD1480]
Relative PNPLA3 mRNA levels (PNPLA3 mRNA [1]; qRT-PCR): 0.69 ± 0.10
PNPLA3 expression (in words) (PNPLA3 mRNA [1]; validation in human hepatocytes from a second donor, qRT-PCR): efficient downregulation of PNPLA3

Molecule: c1cc(-c2cnn3cc(-c4ccc(N5CCNCC5)cc4)cnc23)c2cccnc2c1 [LDN212854, LDN-212854]
PNPLA3 mRNA, TGFβ and BMP pathway inhibitors (in words) (PNPLA3 mRNA [1]): did not decrease PNPLA3 mRNA in primary human hepatocytes
Relative PNPLA3 mRNA expression (PNPLA3 mRNA [1]; 3.3 uM): 1.095 ± 0.1332
Relative PNPLA3 mRNA expression (PNPLA3 mRNA [1]; 10 uM): 0.9339 ± 0.04093
Relative PNPLA3 mRNA expression (PNPLA3 mRNA [2]; 0.01 uM): 0.92 ± 0.22
Relative PNPLA3 mRNA expression (PNPLA3 mRNA [2]; 0.1 uM): 1.02 ± 0.16
Relative PNPLA3 mRNA expression (PNPLA3 mRNA [2]; 1 uM): 0.67 ± 0.12
Relative PNPLA3 mRNA expression (PNPLA3 mRNA [2]; 10 uM): 7.43 ± 3.91

Primary Hepatocytes 4178 PCSK9 (fold change in mRNA expression) (PCSK9 mRNA): 0.36
Primary Hepatocytes 4178 PNPLA3 (fold change in mRNA expression) (PNPLA3 mRNA [1]): 0.43
Primary Hepatocytes 4282 PNPLA3 (fold change in mRNA expression) (PNPLA3 mRNA [1]): 0.80
Molecule: CNC(=O)c1cccc(-c2ccc3c(N4CCOC[C@@H]4C)nc(N4CCOC[C@@H]4C)nc3n2)c1 [AZD2014]
Primary Stellate cells COL1A1 (fold change in mRNA expression) (COL1A1 mRNA): 0.55
Primary Stellate cells PNPLA3 (fold change in mRNA expression) (PNPLA3 mRNA [2]): 0.56

Primary Hepatocytes 4178 PCSK9 (fold change in mRNA expression) (PCSK9 mRNA): 0.46
Primary Hepatocytes 4178 PNPLA3 (fold change in mRNA expression) (PNPLA3 mRNA [1]): 0.52
Primary Hepatocytes 4282 PNPLA3 (fold change in mRNA expression) (PNPLA3 mRNA [1]): 0.60
Molecule: Nc1cc(C(F)(F)F)c(-c2cc(N3CCOCC3)nc(N3CCOCC3)n2)cn1 [Buparlisib (BKN120, NVE-BKM120)]
Primary Stellate cells COL1A1 (fold change in mRNA expression) (COL1A1 mRNA): 0.81
Primary Stellate cells PNPLA3 (fold change in mRNA expression) (PNPLA3 mRNA [2]): 0.50

Molecule: Cc1cnc(Nc2ccc(OCCN3CCCC3)cc2)nc1Nc1cccc(S(=O)(=O)NC(C)(C)C)c1 [Fedratinib (SAR302503, TG101348)]
Relative PINPLA3 mRNA (PNPLA3 mRNA [1]; 10 uM): 0.25

Molecule: TGFB1
Relative PNPLA3 mRNA expression (PNPLA3 mRNA [2]; 0.001 ug/ML): 0.93 ± 0.11 and 1.50 ± 0.17
Relative PNPLA3 mRNA expression (PNPLA3 mRNA [2]; 0.01 ug/ML): 2.35 ± 0.39 and 1.40 ± 0.10

Molecule: COc1cc(-c2cc(-c3cccc(O)c3)cnc2N)cc(OC)c1OC [K02288]
PNPLA3 mRNA, TGFβ and BMP pathway inhibitors (in words) (PNPLA3 mRNA [1]): did not decrease PNPLA3 mRNA in primary human hepatocytes
Relative PNPLA3 mRNA expression (PNPLA3 mRNA [1]; 3.3 uM): 1.259 ± 0.3268
Relative PNPLA3 mRNA expression (PNPLA3 mRNA [1]; 10 uM): 2.687 ± 0.4146

Molecule: c1ccc2c(-c3cnn4cc(-c5ccc(N6CCNCC6)cc5)cnc34)ccnc2c1 [LDN193189]
Relative PNPLA3 mRNA expression (PNPLA3 mRNA [2]; 0.01 uM): 0.95 ± 0.09
Relative PNPLA3 mRNA expression (PNPLA3 mRNA [2]; 0.1 uM): 0.83 ± 0.12
Relative PNPLA3 mRNA expression (PNPLA3 mRNA [2]; 1 uM): 0.76 ± 0.07
Relative PNPLA3 mRNA expression (PNPLA3 mRNA [2]; 10 uM): 9.25

Molecule: CCS(=O)(=O)N1CCN(c2ccc(Nc3ncc(C(N)=O)c(NC4CC4)n3)cc2)CC1 [Cerdulatinib]
Relative PNPLA3 mRNA levels (PNPLA3 mRNA [1]; qRT-PCR): 0.82 ± 0.00

Primary Hepatocytes 4178 PCSK9 (fold change in mRNA expression) (PCSK9 mRNA): 0.69
Molecule: Nc1nc(N)c2nc(-c3cccc(O)c3)c(-c3cccc(O)c3)nc2n1 [TG100-115]
Primary Stellate cells COL1A1 (fold change in mRNA expression) (COL1A1 mRNA): 1.11
Primary Stellate cells PNPLA3 (fold change in mRNA expression) (PNPLA3 mRNA [2]): 1.07

Molecule: COc1cc2ncnc(Nc3ccc(O)cc3)c2cc1OC [JANEX-1]
Relative PNPLA3 mRNA levels (PNPLA3 mRNA [1]; qRT-PCR): 0.78 ± 0.11

Source: patent US20220107328A1, “METHODS OF TREATING LIVER DISEASES” (Camp4 Therapeutics Corporation, priority 2018, published 2022)
